Reference: ChEMBL document CHEMBL4138170, “Synthesis and biological evaluation of novel alkylated polyamine analogues as potential anticancer agents” (Eur J Med Chem, 2018)
Values belong to the molecule of their own block, whether it stands above or below them. Active and inactive are the calls of the source. No cut-off for these calls is given here.

Columns and labels:
K562 = assay: Antiproliferative activity against human K562 cells after 48 hrs by MTT assay; assay type: functional, cell-based; conditions: K562, 48 h
SMMC-7721 [1] = assay: Induction of ROS generation in human SMMC7721 cells at 10 uM after 24 hrs in presence of antioxidant NAC by H2DCFDA staining-based flow cytometry; assay type: functional, cell-based
HepG2 [2] = assay: Induction of autophagy in human HepG2 cells assessed as increase in LC3-2 levels in presence of antioxidant NAC by Western blot analysis; assay type: functional, cell-based
SMMC-7721 [3] = assay: Downregulation of beta-catenin protein expression in human SMMC7721 cells after 24 to 48 hrs by Western blot analysis; assay type: functional, cell-based
HepG2 [4] = assay: Antiproliferative activity against human HepG2 cells after 48 hrs in presence of antioxidant NAC by MTT assay; assay type: functional, cell-based
SMMC-7721 [5] = assay: Inhibition of cell migration in human SMMC7721 cells at 2.5 to 7.5 uM incubated for 24 to 48 hrs by cell wound scratch assay; assay type: functional, cell-based
HepG2 [6] = assay: Induction of ROS generation in human HepG2 cells after 24 hrs by H2DCFDA staining-based HCS analysis; assay type: functional, cell-based
MDA-MB-231 = assay: Antiproliferative activity against human MDA-MB-231 cells after 48 hrs by MTT assay; assay type: functional, cell-based; conditions: MDA-MB-231, 48 h
SMMC-7721 [7] = assay: Induction of autophagy in human SMMC7721 cells assessed as increase in LC3-2 levels in presence of antioxidant NAC by Western blot analysis; assay type: functional, cell-based
CT26 [8] = assay: Antimetastatic activity against mouse CT26 cells implanted in BALB/c mouse assessed as reduction in lung metastatic nodules at 0.75 mg/kg, iv administered via tail vein for 9 days; assay type: functional, organism-based
HT-29 = assay: Antiproliferative activity against human HT-29 cells after 48 hrs by MTT assay; assay type: functional, cell-based; conditions: HT-29, 48 h
H22 [9] = assay: Antiproliferative activity against mouse H22 cells after 48 hrs by MTT assay; assay type: functional, cell-based; conditions: H22, 48 h
[10] = Stability of the compound after 48 hrs by 1H NMR spectroscopic method; assay type: physicochemical
Mus musculus [11] = assay: Toxicity in Swiss mouse xenografted with mouse H22 cells assessed as effect on liver weight at 0.75 mg/kg/day, iv administered via tail vein for 7 days; assay type: organism-based; conditions: in vivo, 168 h
SMMC-7721 [12] = assay: Downregulation of MMP9 protein expression in human SMMC7721 cells after 24 to 48 hrs by Western blot analysis; assay type: functional, cell-based
SMMC-7721 [13] = assay: Antiproliferative activity against human SMMC7721 cells after 48 hrs by MTT assay; assay type: functional, cell-based; conditions: SMMC-7721, 48 h
HepG2 [14] = assay: Induction of autophagy in human HepG2 cells up to 10 uM after 48 hrs in presence of antioxidant NAC by MDC staining-based flow cytometry; assay type: functional, cell-based
HepG2 [15] = assay: Induction of autophagy in human HepG2 cells assessed as downregulation of p62 expression level up to 10 uM after 24 to 48 hrs by Western blot analysis; assay type: functional, cell-based
HepG2 [16] = assay: Induction of autophagy in human HepG2 cells up to 10 uM after 48 hrs by MDC staining-based flow cytometry; assay type: functional, cell-based
SMMC-7721 [17] = assay: Induction of autophagy in human SMMC7721 cells assessed as decrease in p62 levels in presence of antioxidant NAC by Western blot analysis; assay type: functional, cell-based
SMMC-7721 [18] = assay: Induction of ROS generation in human SMMC7721 cells at 2.5 to 10 uM after 24 hrs by H2DCFDA staining-based flow cytometry; assay type: functional, cell-based
Mus musculus [19] = assay: Toxicity in Swiss mouse xenografted with mouse H22 cells assessed as effect on lung weight at 0.75 mg/kg/day, iv administered via tail vein for 7 days; assay type: organism-based; conditions: in vivo, 168 h
Mus musculus [20] = assay: Toxicity in Swiss mouse xenografted with mouse H22 cells assessed as effect on spleen weight at 0.75 mg/kg/day, iv administered via tail vein for 7 days; assay type: organism-based; conditions: in vivo, 168 h
HepG2 [21] = assay: Antiproliferative activity against human HepG2 cells after 48 hrs by MTT assay; assay type: functional, cell-based; conditions: HepG2, 48 h
SMMC-7721 [22] = assay: Induction of ROS generation in human SMMC7721 cells after 24 hrs by H2DCFDA staining-based HCS analysis; assay type: functional, cell-based
HepG2 [23] = assay: Induction of autophagy in human HepG2 cells assessed as upregulation of ATG5 expression level up to 10 uM after 24 to 48 hrs by Western blot analysis; assay type: functional, cell-based
SMMC-7721 [24] = assay: Induction of autophagy in human SMMC7721 cells assessed as downregulation of p62 expression level up to 10 uM after 24 to 48 hrs by Western blot analysis; assay type: functional, cell-based
HepG2 [25] = assay: Inhibition of cell migration in human HepG2 cells at 2.5 to 7.5 uM incubated for 24 to 48 hrs by cell wound scratch assay; assay type: functional, cell-based
SMMC-7721 [26] = assay: Induction of autophagy in human SMMC7721 cells assessed as increase in Beclin 1 levels at 2.5 to 7.5 um after 24 to 48 hrs by Western blot analysis; assay type: functional, cell-based
HepG2 [27] = assay: Induction of autophagy in human HepG2 cells assessed as upregulation of ATG7 expression level up to 10 uM after 24 to 48 hrs by Western blot analysis; assay type: functional, cell-based
HepG2 [28] = assay: Induction of ROS generation in human HepG2 cells at 2.5 to 10 uM after 24 hrs by H2DCFDA staining-based flow cytometry; assay type: functional, cell-based
HCT-116 = assay: Antiproliferative activity against human HCT116 cells after 48 hrs by MTT assay; assay type: functional, cell-based; conditions: HCT-116, 48 h
SMMC-7721 [29] = assay: Induction of autophagy in human SMMC7721 cells assessed as upregulation of ATG7 expression level up to 10 uM after 24 to 48 hrs by Western blot analysis; assay type: functional, cell-based
SMMC-7721 [30] = assay: Induction of autophagy in human SMMC7721 cells up to 10 uM after 48 hrs in presence of antioxidant NAC by MDC staining-based flow cytometry; assay type: functional, cell-based
Mus musculus [31] = assay: Toxicity in Swiss mouse implanted with mouse H22 cells assessed as effect on quality of life at 0.75 mg/kg/day, iv administered via tail vein for 7 days; assay type: organism-based; conditions: in vivo, 168 h
H22 [32] = assay: Antitumor activity against mouse H22 cells implanted in Swiss mouse assessed as tumor growth inhibition at 0.75 mg/kg/day, iv administered via tail vein for 7 days relative to control; assay type: functional; conditions: 168 h, read-out: TGI
CT26 [33] = assay: Antiproliferative activity against mouse CT26 cells after 48 hrs by MTT assay; assay type: functional, cell-based; conditions: CT26, 48 h
HepG2 [34] = assay: Downregulation of MMP9 protein expression in human HepG2 cells after 24 to 48 hrs by Western blot analysis; assay type: functional, cell-based
Mus musculus [35] = assay: Toxicity in Swiss mouse implanted with mouse H22 cells assessed as effect on heart weight at 0.75 mg/kg/day, iv administered via tail vein for 7 days; assay type: organism-based; conditions: in vivo, 168 h
HepG2 [36] = assay: Induction of autophagy in human HepG2 cells assessed as decrease in p62 levels in presence of antioxidant NAC by Western blot analysis; assay type: functional, cell-based
SMMC-7721 [37] = assay: Induction of autophagy in human SMMC7721 cells assessed as upregulation of ATG5 expression level up to 10 uM after 24 to 48 hrs by Western blot analysis; assay type: functional, cell-based
HepG2 [38] = assay: Induction of autophagy in human HepG2 cells assessed as increase in Beclin 1 levels at 2.5 to 7.5 um after 24 to 48 hrs by Western blot analysis; assay type: functional, cell-based
HepG2 [39] = assay: Antimigratory activity in human HepG2 cells incubated for 24 to 48 hrs in presence of autophagy inhibitor 3-MA by cell wound scratch assay; assay type: functional, cell-based
SMMC-7721 [40] = assay: Induction of autophagy in human SMMC7721 cells assessed as increase in LC3-2 levels after 24 to 48 hrs by Western blot analysis; assay type: functional, cell-based
H22 [41] = assay: Antitumor activity against mouse H22 cells implanted in Swiss mouse assessed as inhibition of lung metastasis at 0.75 mg/kg/day, iv administered via tail vein for 7 days relative to control; assay type: functional; conditions: 168 h
Mus musculus [42] = assay: Toxicity in Swiss mouse implanted with mouse H22 cells assessed as effect on body weight at 0.75 mg/kg/day, iv administered via tail vein for 7 days; assay type: organism-based; conditions: in vivo, 168 h
HepG2 [43] = assay: Induction of autophagy in human HepG2 cells assessed as increase in LC3-2 levels after 24 to 48 hrs by Western blot analysis; assay type: functional, cell-based
MCF7 = assay: Antiproliferative activity against human MCF7 cells after 48 hrs by MTT assay; assay type: functional, cell-based; conditions: MCF7, 48 h
SMMC-7721 [44] = assay: Induction of autophagy in human SMMC7721 cells up to 10 uM after 48 hrs by MDC staining-based flow cytometry; assay type: functional, cell-based
Mus musculus [45] = assay: Toxicity in Swiss mouse xenografted with mouse H22 cells assessed as effect on kidney weight at 0.75 mg/kg/day, iv administered via tail vein for 7 days; assay type: organism-based; conditions: in vivo, 168 h
SMMC-7721 [46] = assay: Antiproliferative activity against human SMMC7721 cells after 48 hrs in presence of antioxidant NAC by MTT assay; assay type: functional, cell-based
HepG2 [47] = assay: Induction of ROS generation in human HepG2 cells at 10 uM after 24 hrs in presence of antioxidant NAC by H2DCFDA staining-based flow cytometry; assay type: functional, cell-based
[48] = Stability of the compound after 24 hrs by 1H NMR spectroscopic method; assay type: physicochemical
HepG2 [49] = assay: Downregulation of beta-catenin protein expression in human HepG2 cells after 24 to 48 hrs by Western blot analysis; assay type: functional, cell-based

IC50 (K562): 4.67 µM
IC50 (MDA-MB-231): 5.14 µM
IC50 (HT-29): 8.18 µM
Stability [10]: Stable
IC50 (SMMC-7721 [13]): 5.13 µM
IC50 (HepG2 [21]): 6.34 µM
IC50 (HCT-116): 5.28 µM
IC50 (CT26 [33]): 9.04 µM
IC50 (MCF7): 7.47 µM
Stability [48]: Stable
Compound: Cl.Cl.Cl.O=C1c2cccc3cccc(c23)C(=O)N1CCCNCCCNCCCNC1CC1
Activity (SMMC-7721 [1]): inactive
Activity (HepG2 [2]): inactive
Activity (SMMC-7721 [3]): Dose-dependent effect
Activity (HepG2 [4]): inactive
inhibition (SMMC-7721 [5]): Active
Activity (HepG2 [6]): Dose-dependent effect
Activity (SMMC-7721 [7]): inactive
inhibition (CT26 [8]): Active
IC50 (H22 [9]): 7.49 µM
Activity (Mus musculus [11]): Non-Toxic
Activity (SMMC-7721 [12]): Dose-dependent effect
Activity (HepG2 [14]): inactive
Activity (HepG2 [15]): Active
Activity (HepG2 [16]): Active
Activity (SMMC-7721 [17]): inactive
Activity (SMMC-7721 [18]): Active
Activity (Mus musculus [19]): Non-Toxic
Activity (Mus musculus [20]): Non-Toxic
Activity (SMMC-7721 [22]): Dose-dependent effect
Activity (HepG2 [23]): Active
Activity (SMMC-7721 [24]): Active
inhibition (HepG2 [25]): Active
Activity (SMMC-7721 [26]): Active
Activity (HepG2 [27]): Active
Activity (HepG2 [28]): Active
Activity (SMMC-7721 [29]): Active
Activity (SMMC-7721 [30]): inactive
Activity (Mus musculus [31]): Non-Toxic
inhibition in vivo at 0.75 mg/kg/day (H22 [32]): 68.3%
Activity (HepG2 [34]): Dose-dependent effect
Activity (Mus musculus [35]): Non-Toxic
Activity (HepG2 [36]): inactive
Activity (SMMC-7721 [37]): Active
Activity (HepG2 [38]): Active
Activity (HepG2 [39]): Active
Activity (SMMC-7721 [40]): Dose-dependent effect
inhibition in vivo at 0.75 mg/kg/day (H22 [41]): 54.4%
Activity (Mus musculus [42]): Non-Toxic
Activity (HepG2 [43]): Dose-dependent effect
Activity (SMMC-7721 [44]): Active
Activity (Mus musculus [45]): Non-Toxic
Activity (SMMC-7721 [46]): inactive
Activity (HepG2 [47]): inactive
Activity (HepG2 [49]): Dose-dependent effect

IC50 (K562): 10.2 µM
IC50 (SMMC-7721 [13]): 11.2 µM
IC50 (HepG2 [21]): 9.98 µM
IC50 (HCT-116): 7.96 µM
Compound: CCCNCCCNCCCNCCCN1C(=O)c2cccc3cccc(c23)C1=O
